Test results reported in US5434136A, “Treatment of motility disorders with a GNRH analog” (priority 1992, dated 1995).

Key:
[1] = tested on: diseases of the autonomic nervous system; details: cited from earlier work; for Relief of symptoms: mild to moderate symptoms; for Relief of symptoms / Effectiveness in patients with severe symptoms: experimental drugs; for Success of therapy: patients with mild to moderate disease symptoms
irritable bowel syndrome = details: patient, three months
Experimental: The patient, a patient suffering from irritable bowel syndrome presented symptoms of nausea, vomiting, abdominal pain, and altered bowel habits. This patient was treated with lupron, 2.0 mg/day by subcutaneous injection, for a period of six months. […] Nafarelin is a GnRH analog available from SYNTEX, which differs from the natural GnRH peptide in a D-Nal (2)^6 substitution. […] Nafarelin therapy was discontinued, and treatment with Danazol, a 17-ethyltestosterone derivative known to antagonize GnRH receptors at the level of the pituitary, was begun, at 200 mg four times daily, P.O., for a period of three months.

Row | Structure (SMILES) | Relief of symptoms [1] | Effectiveness in patients with severe symptoms [1] | Success of therapy [1] | also measured
1 | COc1cc(N)c(Cl)cc1C(=O)NC1CCN(CCCOc2ccc(F)cc2)CC1OC (stereo not drawn) [cisapride] | limited relief of mild to moderate symptoms | not been effective |  | 
2 | C#C[C@]1(O)CC[C@H]2[C@@H]3CCC4=Cc5oncc5C[C@]4(C)[C@H]3CC[C@@]21C [Danazol] |  |  |  | Therapeutic effect (irritable bowel syndrome; 200 mg four times daily, P.O.): only minimal therapeutic effect
3 | O=c1[nH]c2ccccc2n1CCCN1CCC(n2c(=O)[nH]c3cc(Cl)ccc32)CC1 [domperidone] | limited relief of mild to moderate symptoms | not been effective |  | 
4 | CCN(CC)CCNC(=O)c1cc(Cl)c(N)cc1OC [metoclopramide] |  |  | limited success | 
5 | CC(C)C[C@H](NC(=O)[C@@H](Cc1ccc2ccccc2c1)NC(=O)[C@H](Cc1ccc(O)cc1)NC(=O)[C@H](CO)NC(=O)[C@H](Cc1c[nH]c2ccccc12)NC(=O)[C@H](Cc1c[nH]cn1)NC(=O)[C@@H]1CCC(=O)N1)C(=O)N[C@@H](CCCNC(=N)N)C(=O)N1CCC[C@H]1C(=O)NCC(N)=O [Nafarelin] |  |  |  | Blood levels of FSH and LH (irritable bowel syndrome; 2.0 mg/day s.c.): effectively reduced their blood levels of FSH and LH; Symptoms of irritable bowel disease (irritable bowel syndrome; 2.0 mg/day s.c.): effectively reduced the symptoms of their irritable bowel disease
6 | CC(C[N+](C)(C)C)OC(N)=O (stereo not drawn) [bethanechol] |  |  | limited success | 
